Experimental data taken from ChEMBL document CHEMBL1152652, “Bioorganic synthesis of end-capped anti-HIV peptides by simultaneous cyanocysteine-mediated cleavages of recombinant proteins” (Bioorg Med Chem, 2009).
Where a SMILES comes first, the peptide text is derived from it. The star is where a group is joined. NH(2-oxoazepan-3S-yl) = O=C1NCCCC[C@@H]1N*; Aspartimide = O=C1C[C@H](N*)C(=O)N1; X1 = N=C1N[C@H](C(=O)*)CS1

Legend:
[1] = test system: Human immunodeficiency virus 1; assay: Antiviral activity against HIV1 NL4-3 infected in human HeLa cells assessed as inhibition of replication after 48 hrs by MAGI assay; format: functional, organism-based; conditions: Human immunodeficiency virus 1, NL4-3, HeLa
HeLa = assay: Cytotoxicity against human HeLa cells after 48 hrs up to 10 uM by MAGI assay; format: cell-based
Serum = assay: Metabolic stability in 50% mouse serum assessed as degradation after 24 hrs; format: ADME, cell-free

Ac-WMEWDRKIEEYTKKIEELIKKSQEQQEKNEKELK-NH2
EC50 [1]: 0.6 nM

H-WMEWDRKIEEYTKKIEELIKKSQEQQEKNEKELK-OH
EC50 [1]: 0.68 nM

CC[C@H](C)[C@H](NC(=O)[C@H](CC(C)C)NC(=O)[C@H](CCC(=O)O)NC(=O)[C@H](CCC(=O)O)NC(=O)[C@@H](NC(=O)[C@H](CCCCN)NC(=O)[C@H](CCCCN)NC(=O)[C@@H](NC(=O)[C@H](Cc1ccc(O)cc1)NC(=O)[C@H](CCC(=O)O)NC(=O)[C@H](CCC(=O)O)NC(=O)[C@@H](NC(=O)[C@H](CCCCN)NC(=O)[C@H](CCCNC(=N)N)NC(=O)[C@H](CC(=O)O)NC(=O)[C@H](Cc1c[nH]c2ccccc12)NC(=O)[C@H](CCC(=O)O)NC(=O)[C@H](CCSC)NC(=O)[C@H](Cc1c[nH]c2ccccc12)NC(=O)[C@@H]1CSC(=N)N1)[C@@H](C)CC)[C@@H](C)O)[C@@H](C)CC)C(=O)N[C@@H](CCCCN)C(=O)N[C@@H](CCCCN)C(=O)N[C@@H](CO)C(=O)N[C@@H](CCC(N)=O)C(=O)N[C@@H](CCC(=O)O)C(=O)N[C@@H](CCC(N)=O)C(=O)N[C@@H](CCC(N)=O)C(=O)N[C@@H](CCC(=O)O)C(=O)N[C@@H](CCCCN)C(=O)N[C@@H](CC(N)=O)C(=O)N[C@@H](CCC(=O)O)C(=O)N[C@@H](CCCCN)C(=O)N[C@@H](CCC(=O)O)C(=O)N[C@@H](CC(C)C)C(=O)N[C@@H](CCCCN)C(=O)N[C@H]1CCCCNC1=O (X1-WMEWDRKIEEYTKKIEELIKKSQEQQEKNEKELK-{NH(2-oxoazepan-3S-yl)})
EC50 [1]: 0.58 nM | Activity (HeLa): Non-toxic | Activity (Serum): Stable

CC[C@H](C)[C@H](NC(=O)[C@H](CC(C)C)NC(=O)[C@H](CCC(=O)O)NC(=O)[C@H](CCC(=O)O)NC(=O)[C@@H](NC(=O)[C@H](CCCCN)NC(=O)[C@H](CCCCN)NC(=O)[C@@H](NC(=O)[C@H](Cc1ccc(O)cc1)NC(=O)[C@H](CCC(=O)O)NC(=O)[C@H](CCC(=O)O)NC(=O)[C@@H](NC(=O)[C@H](CCCCN)NC(=O)[C@H](CCCNC(=N)N)NC(=O)[C@H](CC(=O)O)NC(=O)[C@H](Cc1c[nH]c2ccccc12)NC(=O)[C@H](CCC(=O)O)NC(=O)[C@H](CCSC)NC(=O)[C@H](Cc1c[nH]c2ccccc12)NC(=O)[C@@H]1CSC(=N)N1)[C@@H](C)CC)[C@@H](C)O)[C@@H](C)CC)C(=O)N[C@@H](CCCCN)C(=O)N[C@@H](CCCCN)C(=O)N[C@@H](CO)C(=O)N[C@@H](CCC(N)=O)C(=O)N[C@@H](CCC(=O)O)C(=O)N[C@@H](CCC(N)=O)C(=O)N[C@@H](CCC(N)=O)C(=O)N[C@@H](CCC(=O)O)C(=O)N[C@@H](CCCCN)C(=O)N[C@@H](CC(N)=O)C(=O)N[C@@H](CCC(=O)O)C(=O)N[C@@H](CCCCN)C(=O)N[C@@H](CCC(=O)O)C(=O)N[C@@H](CC(C)C)C(=O)N[C@@H](CCCCN)C(=O)N[C@H]1CC(=O)NC1=O (X1-WMEWDRKIEEYTKKIEELIKKSQEQQEKNEKELK-Aspartimide)
EC50 [1]: 0.48 nM | Activity (HeLa): Non-toxic | Activity (Serum): Unstable
